The target in series [1] is T1, CatC (Homo sapiens, UniProt P53634). The settings on record: only at high concentrations; cited from earlier work.
Series [2] has as its target T1, CatC. The series is described as follows: E-64 inhibition of CatC activity. It counts as biochemical. As to conditions: compared with literature ~500 μM.
Another series deals with cathepsin C (CatC). The series is described as follows: cathepsin C. The settings on record: 37°C, up to 24 hours.
The test system of a further series is cathepsin H (CatH). The series can be described thus: cathepsin H in 50 mM acetate buffer pH 5 with 1 mM EDTA and 1 mM DTT. The settings on record: up to 24 hours.
A further series deals with cathepsin L (CatL). The series is described as follows: cathepsin L in 50 mM acetate buffer pH 5 with 1 mM EDTA and 1 mM DTT. The settings on record: up to 8 hours.
The test system of the next series is cathepsin A (CatA). The series is described as follows: cathepsin A. As to conditions: 37°C, up to 8 hours.
The next series has as its system cathepsin F (CatF). The series is described as follows: cathepsin F in 50 mM acetate buffer pH 5 with 1 mM EDTA and 1 mM DTT. As to conditions: up to 24 hours.
A further series deals with cathepsin F. The series can be described thus: 50 mM acetate buffer pH 5 with 1 mM EDTA and 1 mM DTT. The settings on record: up to 24 hours.
For another series, the system named is cathepsin B (CatB). The series is described as follows: cathepsin B in 50 mM acetate buffer pH 5 with 1 mM EDTA and 1 mM DTT. The settings on record: up to 8 hours.

Entries after “also recorded” stand apart in the source; their conditions may differ.

T1 sequence (P53634 25-134 limits assumed): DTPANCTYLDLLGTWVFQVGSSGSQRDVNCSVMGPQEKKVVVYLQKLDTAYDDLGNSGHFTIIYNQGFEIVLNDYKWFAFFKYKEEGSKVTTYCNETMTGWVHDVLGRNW
T1 sequence (P53634 231-394 limits assumed): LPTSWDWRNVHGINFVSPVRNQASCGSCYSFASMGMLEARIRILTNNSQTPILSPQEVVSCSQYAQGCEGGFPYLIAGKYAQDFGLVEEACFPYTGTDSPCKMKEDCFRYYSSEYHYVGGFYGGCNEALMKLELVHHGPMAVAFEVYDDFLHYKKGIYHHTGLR
T1 sequence (P53634 395-463 limits assumed): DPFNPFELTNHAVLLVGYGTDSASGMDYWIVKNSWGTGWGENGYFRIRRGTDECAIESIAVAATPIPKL

Consider `CC(C)C[C@H](NC(=O)[C@H]1O[C@@H]1C(=O)O)C(=O)NCCCCN=C(N)N` (relative stereo) [E-64, L-trans-Epoxysuccinyl-leucylamido(4-guanidino) butane], for which the “concentration at which E-64 inhibits CatC” value at CatC [1] is on record as ~ 500 μM. Further, the “E-64 inhibition of CatC activity observed by the authors” value on CatC [2] was “activity inhibition at much-reduced concentration”.

On to AKAKTDHGAEIVYK, for which the fragment found entry with cathepsin C (CatC) is “TDHGAEIVYK”; with cathepsin H (CatH), “TDHGAEIVYK; also recorded: DHGAEIVYK”; with cathepsin L (CatL), “IVYK and TDHGAEIVY and HGAEIVYK and GAEIVYK and AKTDHGAEIVYK and AKAKTDHGAEIVY”; with cathepsin A (CatA), “AKAKTDHGAEIVY, 0.5h; also recorded: AKAKTDHGAEIV; also recorded: AKAKTDHGAEI; also recorded: KTDHGAEIV; also recorded: AKTDHGAEIV; also recorded: KTDHGAEI; also recorded: AKTDHGAEI”. In addition, the not cleaved entry with cathepsin F (CatF) and in the series on cathepsin F was “no proteolytic digestion” in each case.

For AKAKTDHGAEIVYK (D-Asp variant), the not cleaved entry in the series on cathepsin C (CatC) is recorded as “no TDHGAEIVYK after 24 h”; in the series on cathepsin F (CatF), “no proteolytic digestion”. For the same compound, the fragment found result with cathepsin H (CatH) is “TDHGAEIVYK”; with cathepsin L (CatL) it was “IVYK and AKTDHGAEIVYK and AKAKTDHGAEIVY”; in the series on cathepsin A (CatA), “AKAKTDHGAEIVY, 0.5h; also recorded: AKAKTDHGAEIV; also recorded: AKAKTDHGAEI”.

AKAKTDHGAEIVYK (D-isoAsp variant): the fragment found entry with cathepsin C (CatC) is “IVYK”; in the series on cathepsin H (CatH), “TDHGAEIVYK”; in the series on cathepsin L (CatL) it was “IVYK and AKTDHGAEIVYK and AKAKTDHGAEIVY”; in the series on cathepsin A (CatA) it was “AKAKTDHGAEIVY, 0.5h; also recorded: AKAKTDHGAEIV; also recorded: AKAKTDHGAEI”. Moreover, the values for the not cleaved entry in the series with cathepsin C (CatC) and with cathepsin F (CatF) were “no TDHGAEIVYK after 24 h” and “no proteolytic digestion”, respectively.

Turning to AKAKTDHGAEIVYK (L-isoAsp variant), in the series with cathepsin C (CatC), the not cleaved entry is recorded as “no TDHGAEIVYK after 24 h”. Moreover, the fragment found entry was “TDHGAEIVYK” in the series on cathepsin H (CatH); “AKAKTDHGAEIVY and IVYK and AKTDHGAEIVYK” in the series with cathepsin L (CatL); “AKAKTDHGAEIVY, 0.5h; also recorded: AKAKTDHGAEIV; also recorded: AKAKTDHGAEI” in the series with cathepsin A (CatA).

For the compound SEMRLEKDRFSVNL, the fragment found entry in the series with cathepsin B (CatB) was “SEMRLEKDRF and SEMRLEKDR and LEKDRF and EKDRF and KDRF”; in the series on cathepsin F (CatF) it was “SEMRLE; also recorded: KDRFSVNL; also recorded: SEMR, minor, longer time-points”.

Take SEMRLEKDRFSVNL (D-Asp variant): in the series on cathepsin B (CatB), the fragment found entry was “SEMRLEKDRF; also recorded: SEMRLEKDR” and the not cleaved entry is on record as “no cleavage C-terminal to isomerized Asp”.

For SEMRLEKDRFSVNL (D-isoAsp variant), in the series with cathepsin B (CatB), the fragment found entry is recorded as “SEMRLEKDRF; also recorded: SEMRLEKDR” and the not cleaved result is reported as “no cleavage C-terminal to isomerized Asp”.

Take SEMRLEKDRFSVNL (L-isoAsp variant): in the series with cathepsin B (CatB), the fragment found result was “SEMRLEKDRFS and SEMRLEKDRF and SEMRLEKDR and KDRF”; the not cleaved entry was “no cleavage C-terminal to isomerized Asp”.
